Source: PubChem BioAssay (NCI)
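96-well plates; 48 h exposure; 5 concentrations. Endpoints by linear interpolation between flanking doses. Not reached: highest tested concentration assigned. TGI marks complete inhibition of growth.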

The molecules below were run on OVCAR-5 ovarian (assay: NCI-60 cell line screen, 48 h).

Compound | TGI [µM]
Cc1ccc(N=Nc2c(C)nn(-c3ccccc3)c2C)c(Br)c1 | > 100
CCOC(=O)[C@]12C3C=CC(C3)C1C(=O)C1OC12 (stereo partly drawn) | > 100

These molecules were tested on DMS 273 small cell lung (assay: NCI-60 cell line screen, 48 h).

Compound | TGI [µM]
[O-][n+]1c(-c2ccccc2)oc2ccccc21 | 28
Cc1cccc(C)c1NC(=O)CCC(=O)NNc1nnc(C)n1N | > 100
Cc1ccc(N=Nc2c(C)nn(-c3ccccc3)c2C)c(Br)c1 | > 100
CCOC(=O)[C@]12C3C=CC(C3)C1C(=O)C1OC12 (stereo partly drawn) | > 100

The molecules below were run on DMS 114 small cell lung (assay: NCI-60 cell line screen, 48 h).

Compound | TGI [µM]
[O-][n+]1c(-c2ccccc2)oc2ccccc21 | 16.4
Cc1cccc(C)c1NC(=O)CCC(=O)NNc1nnc(C)n1N | > 100
Cc1ccc(N=Nc2c(C)nn(-c3ccccc3)c2C)c(Br)c1 | > 100
CCOC(=O)[C@]12C3C=CC(C3)C1C(=O)C1OC12 (stereo partly drawn) | > 100

Each molecule was assayed on SF-539 CNS (assay: NCI-60 cell line screen, 48 h).

Compound | TGI [µM]
[O-][n+]1c(-c2ccccc2)oc2ccccc21 | 31.5
Cc1cccc(C)c1NC(=O)CCC(=O)NNc1nnc(C)n1N | > 100
Cc1ccc(N=Nc2c(C)nn(-c3ccccc3)c2C)c(Br)c1 | > 100
CCOC(=O)[C@]12C3C=CC(C3)C1C(=O)C1OC12 (stereo partly drawn) | > 100

These molecules were tested on HCT-15 colon (assay: NCI-60 cell line screen, 48 h).

Compound | TGI [µM]
[O-][n+]1c(-c2ccccc2)oc2ccccc21 | 24.3
Cc1cccc(C)c1NC(=O)CCC(=O)NNc1nnc(C)n1N | > 100
Cc1ccc(N=Nc2c(C)nn(-c3ccccc3)c2C)c(Br)c1 | > 100
CCOC(=O)[C@]12C3C=CC(C3)C1C(=O)C1OC12 (stereo partly drawn) | > 100

What follows are molecules tested on NCI-H23 lung (assay: NCI-60 cell line screen, 48 h).

Compound | TGI [µM]
[O-][n+]1c(-c2ccccc2)oc2ccccc21 | 38.7
Cc1cccc(C)c1NC(=O)CCC(=O)NNc1nnc(C)n1N | > 100
Cc1ccc(N=Nc2c(C)nn(-c3ccccc3)c2C)c(Br)c1 | > 100
CCOC(=O)[C@]12C3C=CC(C3)C1C(=O)C1OC12 (stereo partly drawn) | > 100

The molecules below were run on IGROV1 ovarian (assay: NCI-60 cell line screen, 48 h).

Compound | TGI [µM]
[O-][n+]1c(-c2ccccc2)oc2ccccc21 | > 100
Cc1cccc(C)c1NC(=O)CCC(=O)NNc1nnc(C)n1N | > 100
Cc1ccc(N=Nc2c(C)nn(-c3ccccc3)c2C)c(Br)c1 | > 100
CCOC(=O)[C@]12C3C=CC(C3)C1C(=O)C1OC12 (stereo partly drawn) | > 100

The molecules below were run on HL-60(TB) leukemia (assay: NCI-60 cell line screen, 48 h).

Compound | TGI [µM]
[O-][n+]1c(-c2ccccc2)oc2ccccc21 | 79.9
Cc1cccc(C)c1NC(=O)CCC(=O)NNc1nnc(C)n1N | > 100
Cc1ccc(N=Nc2c(C)nn(-c3ccccc3)c2C)c(Br)c1 | > 100
CCOC(=O)[C@]12C3C=CC(C3)C1C(=O)C1OC12 (stereo partly drawn) | > 100

These molecules were tested on SK-MEL-5 melanoma (assay: NCI-60 cell line screen, 48 h).

Compound | TGI [µM]
[O-][n+]1c(-c2ccccc2)oc2ccccc21 | 6.81
Cc1cccc(C)c1NC(=O)CCC(=O)NNc1nnc(C)n1N | > 100
Cc1ccc(N=Nc2c(C)nn(-c3ccccc3)c2C)c(Br)c1 | > 100
CCOC(=O)[C@]12C3C=CC(C3)C1C(=O)C1OC12 (stereo partly drawn) | > 100

Each molecule was assayed on SF-268 CNS (assay: NCI-60 cell line screen, 48 h).

Compound | TGI [µM]
[O-][n+]1c(-c2ccccc2)oc2ccccc21 | > 100
Cc1cccc(C)c1NC(=O)CCC(=O)NNc1nnc(C)n1N | > 100
Cc1ccc(N=Nc2c(C)nn(-c3ccccc3)c2C)c(Br)c1 | > 100
CCOC(=O)[C@]12C3C=CC(C3)C1C(=O)C1OC12 (stereo partly drawn) | > 100

These molecules were tested on U251 CNS (assay: NCI-60 cell line screen, 48 h).

Compound | TGI [µM]
[O-][n+]1c(-c2ccccc2)oc2ccccc21 | > 85.8
Cc1cccc(C)c1NC(=O)CCC(=O)NNc1nnc(C)n1N | > 100
Cc1ccc(N=Nc2c(C)nn(-c3ccccc3)c2C)c(Br)c1 | > 100
CCOC(=O)[C@]12C3C=CC(C3)C1C(=O)C1OC12 (stereo partly drawn) | > 100

What follows are molecules tested on HCC-2998 colon (assay: NCI-60 cell line screen, 48 h).

Compound | TGI [µM]
[O-][n+]1c(-c2ccccc2)oc2ccccc21 | 37.8
Cc1cccc(C)c1NC(=O)CCC(=O)NNc1nnc(C)n1N | > 100
Cc1ccc(N=Nc2c(C)nn(-c3ccccc3)c2C)c(Br)c1 | > 100
CCOC(=O)[C@]12C3C=CC(C3)C1C(=O)C1OC12 (stereo partly drawn) | > 100

The molecules below were run on HOP-62 NSCLC (assay: NCI-60 cell line screen, 48 h).

Compound | TGI [µM]
[O-][n+]1c(-c2ccccc2)oc2ccccc21 | 35.2
Cc1cccc(C)c1NC(=O)CCC(=O)NNc1nnc(C)n1N | > 100
Cc1ccc(N=Nc2c(C)nn(-c3ccccc3)c2C)c(Br)c1 | > 100
CCOC(=O)[C@]12C3C=CC(C3)C1C(=O)C1OC12 (stereo partly drawn) | > 100

What follows are molecules tested on HT29 colon (assay: NCI-60 cell line screen, 48 h).

Compound | TGI [µM]
[O-][n+]1c(-c2ccccc2)oc2ccccc21 | 59.1
Cc1cccc(C)c1NC(=O)CCC(=O)NNc1nnc(C)n1N | > 100
Cc1ccc(N=Nc2c(C)nn(-c3ccccc3)c2C)c(Br)c1 | > 100
CCOC(=O)[C@]12C3C=CC(C3)C1C(=O)C1OC12 (stereo partly drawn) | > 100

These molecules were tested on CAKI-1 renal (assay: NCI-60 cell line screen, 48 h).

Compound | TGI [µM]
[O-][n+]1c(-c2ccccc2)oc2ccccc21 | > 55.7
Cc1cccc(C)c1NC(=O)CCC(=O)NNc1nnc(C)n1N | > 100
Cc1ccc(N=Nc2c(C)nn(-c3ccccc3)c2C)c(Br)c1 | > 100
CCOC(=O)[C@]12C3C=CC(C3)C1C(=O)C1OC12 (stereo partly drawn) | > 100
